Data from patent US20140051650A1, “VAGINAL COMPOSITIONS BASED ON ALKYL POLYGLUCOSIDES” (EFFIK S.A., priority 2011, published 2014).

System: vaginal lactobacilli
Experiment: Activity on vaginal lactobacilli compared with the pathogen strains
Assay type: cell-based
Details: lactobacilli versus G. vaginalis
Protocol: By comparison, the lactobacillus strains dominating in the physiological colonization of the vaginal mucosa typical in healthy women were also tested. Thus, such explorative activity was carried out on such strains with the aim of evaluating a selectivity of the compounds of the invention with respect to the pathogenic microorganisms with respect to the lactobacillus bacterial flora. Immediately after determining the value of the MIC for each substance, a volume equivalent to 50 μl was taken from each well and streaked on the surface of plates containing the solid medium. The plates were subsequently incubated at the conditions indicated for each microbial strain. After incubation at 37° C. for 24 hours, the number of colonies grown on the medium surface was counted thus determining the number of bacteria that survived after 24 hours of contact with the substance at the concentration present in the well. The MBC value defined as the lowest concentration of each substance capable of reducing the bacterial load by 99.9% in the previously defined assay conditions was determined through comparison between the number of bacteria that survived in each well and that of the bacterial inoculum deposited initially.

Substance: lauryl glucoside/C12-C16 alkyl polyglucoside [Substance A2]
- MBC values in vaginal lactobacilli, times higher than those observed in G. vaginalis: about 15 times
